Melting point data for 2 molecules are collected here from patent publication US20080113944A1, “Novel Indole Derivatives” (Novo Nordisk A/S, priority 2004, published 2008).

As a reminder, the melting point is the temperature, or range, at which the solid turns liquid.

SMILES strings stand for the structures.

`N#CC(=Cc1ccc2[nH]ccc2c1)S(=O)(=O)c1ccc([N+](=O)[O-])cc1` [Example 2, 3-(1H-indol-5-yl)-2-(4-nitrobenzenesulfonyl)acrylonitrile] displayed a melting point of 219 to 221 °C. The figure for `CS(=O)(=O)C(C#N)=Cc1ccc2[nH]ccc2c1` [Example 3, 3-(1 H-indol-5-yl)-2-methanesulfonylacrylonitrile] is 184 to 185 °C.
